# Data published in US4820723A, “Disubstituted tetrazole leukotriene antagonists and methods for their use thereas” (Eli Lilly and Company, priority 1987, dated 1989).
# Key:
# [1] = test system: pressor response to leukotriene D4; test: decrease of LTD4 pressor response in pithed rats; type: in vivo, Adult male Sprague-Dawley rats; details: Rattus norvegicus, iv, 0.25 h, 15 minutes prior to leukotriene D4 challenge (10 μg/kg, i.v.); dose to decrease pressor response by 50%
# Method: A further measure of the final product's activity is their ability to decrease the pressor response in pithed rats that are challenged by LTD4. This activity is measured by the following standard procedure
# Adult male Sprague-Dawley rats, weighting approximately 300-500 grams, are anesthetized with pentobarbital sodium (60 mg/kg, i.p.). The trachea is cannulated and the rats are ventilated with room air delivered from a rodent respirator (Harvard, model 680; tidal volume of 1 ml/100 grams body weight, 60 cycles/minute). Rats are pithed by passing a steel rod through the right orbit and down the entire length of the spinal column. The rod is left in position for the duration of the experiment. Pulsatile arterial blood pressure is measured from a cannulated carotid artery using a Stathamtransducer (P231D). Mean arterial blood pressure is calculated as diastolic pressure plus 1/3 pulse pressure. Drug solutions are administered i.v. through a catheter placed in a jugular vein. Arterial blood pressure is recorded on a multichannel oscillograph (Beckman, model R511A).
# Groups of pithed rats, usually 4-6/group, are pretreated i.v. with a dose of test compound or vehicle (control experiments) 15 minutes prior to leukotriene D4 challenge (10 μg/kg, i.v.). Usually 3-4 doses of the test compound are evaluated in a given study. Blood pressure responses to leukotriene D4 in control and drug-treated pithed rats are then compared and an ED50 dose of antagonist is estimated. ED50 (95% confidence interval) is the calculated dose of antagonist (mg/kg, i.v.) required to decrease the pressor response to leukotriene D4 by 50%.
# The ED50 values of selected final products of Formula I are set forth below in Table 2.
# [2] = molecular target: T1, LTD4 in guinea pig ileum and trachea (Cavia porcellus, UniProt Q2NNR5); test: cumulative concentration-response curves to LTD4 in guinea pig ileum and trachea (KB by method of Furchgott); details: negative log of the dissociation KB, 30 minute incubation, LTD4 agonist
# T1 construct: from tissue; host or cells: isolated ileum and trachea of guinea pigs (male Hartley stated for the ileum test)
# T1 sequence (Q2NNR5 1-340): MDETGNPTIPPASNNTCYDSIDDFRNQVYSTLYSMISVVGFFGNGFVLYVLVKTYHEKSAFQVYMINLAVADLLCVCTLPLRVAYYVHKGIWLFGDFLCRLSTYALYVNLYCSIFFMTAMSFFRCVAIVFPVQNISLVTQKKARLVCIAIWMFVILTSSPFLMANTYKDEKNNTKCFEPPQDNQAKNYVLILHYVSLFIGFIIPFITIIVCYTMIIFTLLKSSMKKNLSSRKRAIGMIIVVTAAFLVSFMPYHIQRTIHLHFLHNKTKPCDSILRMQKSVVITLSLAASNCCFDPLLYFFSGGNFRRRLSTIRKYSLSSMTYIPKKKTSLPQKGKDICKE
# Method: (§1) Male, Hartley guinea pigs weighing 200-450 grams were killed by decapitation. A section of terminal ileum was removed, the lumen cleaned, and the tissue divided into 2.5 cm segments. The ilea were mounted in 10 ml tissue baths containing Krebs-bicarbonate solution of the following composition in mmoles/liter: KCl, 4.6; CaCl2 ·2H2 O, 1.2; KH2 PO4, 1.2; MgSO4 ·7H2 O, 1.2; NaCl, 118.2; NaHCO3, 24.8; and dextrose, 10.0. The bath fluid was maintained at 37° C. and aerated with 95 percent oxygen and 5 percent CO2. In addition, the buffer contained 1×10^-6 M atropine to reduce ileal spontaneous activity. Isometric measurements were made with a Grass FT03C force-displacement transducer and recorded on a Grass polygraph as change in grams of force. A passive force of 0.5 g. was applied to the tissues. After an appropriate equilibration period, single submaximal control responses to pure LTD4 were obtained. Following a five minute exposure of the ileum to an experimental drug, the control concentration of LTD4 was added to the tissue bath. The response of the ileum to LTD4 in the presence of the drug was compared to the response in the absence of the drug. Various degrees of LTD4 antagonism were obtained using 2-4 different concentrations of an experimental compound on a single ileum.
# For some of the drugs in this series a more detailed analysis of LTD4 antagonism was made. In these experiments, cumulative concentration-response curves were obtained to LTD4 in guinea pig ileum and trachea. This was followed by a 30 minute incubation with various concentrations of the experimental drug. The concentration response curve to LTD4 was then repeated in the presence of an antagonist. Only one concentration of antagonist was used on a single tissue. KB values were calculated by the method of Furchgott [Ann. N.Y. Acad. Sci., 139, 553 (1967)] using the following equation. [formula]
# Dose effect ratio refers to the concentration of agonist required to elicit 50 percent of the maximal response (ED50) in the presence of the antagonist divided by the ED50 in the absence of the antagonist. Calculations were performed with the aid of a computer and a digital plotter. The negative log of the dissociation KB ("pKB ") is given for some of the compounds in the table below.
# (§2) Percent inhibition of LTD4 evoked ileal contractions
# [3] = test system: LTD4 evoked ileal contractions; test: LTD4 antagonism: inhibition of LTD4 evoked contractions of isolated guinea pig ileum; parameters: species or system Male, Hartley guinea pigs; details: 5 min exposure to drug, 50% inhibition of LTD4 responses, 37° C.
# Method: as §1, §2
pKB [2],-log IC50 [3],Compound,ED50 [1] [mg/kg]
7.190,7.75,"CCCc1c(OCCCCc2nnn(Cc3ccc(C(=O)O)cc3)n2)ccc(C(C)=O)c1O [Example 31, 5-[4-(4-Acetyl-3-hydroxy-2-propylphenoxy)butyl]-2H-tetrazole-2-(α-methylene-p-benzoic acid)]",6.5
7.10,–,CCCc1c(OCCCCc2nnn(Cc3ccc(Cc4nn[nH]n4)cc3)n2)ccc(C(C)=O)c1O [Example 54],22.4
6.89,–,"CCCc1c(OCCCCc2nnn(Cc3ccc(C(=O)O)c(O)c3)n2)ccc(C(C)=O)c1O [Example 55, 5-[4-(4-Acetyl-3-hydroxyl-2-(n-propyl)phenoxy)-butyl]-2H-tetrahydrazole-2-[4-(methylene)salicylic acid]]",22
6.40,–,"CCCc1c(OCCCCc2nnnn2Cc2ccc(C(=O)O)cc2O)ccc(C(C)=O)c1O [Example 56, 5-[4-(4-Acetyl-3-hydroxy-2-(n-propyl)phenoxy)butyl]-1H-tetrazole-1-[(4-methylene)-3-hydroxybenzoic acid]]",–
7.06,–,"CCCc1c(OCCCCc2nnn(Cc3ccc(C(=O)O)cc3O)n2)ccc(C(C)=O)c1O [Example 57, 5-[4-(4-Acetyl-3-hydroxy-2-(n-propyl)phenoxy)butyl]-2H-tetrazole-2-[4-(methylene)3-hydroxybenzoic acid]]",19.8
7.00,–,"CCCc1c(Oc2ccc(-c3nnn(Cc4ccc(C(=O)O)cc4)n3)cc2)ccc(C(C)=O)c1O [Example 58, 5-[Para-(4-Acetyl-3-hydroxy-2-(n-propyl)phenoxy)phenyl]-2H-tetrazole-2-[para(methylene)benzoic acid]]",–
